The subject of experiment [1] is E. coli 0111:B4 (smooth) bacteria. The experiment can be described thus: Radial diffusion bactericidal assay, E. coli 0111:B4. Type of experiment: cell-based. The settings on record: radial diffusion; PROBIT analysis; E. coli O111:B4 (smooth).
Experiment [2] has as its system rough mutant E. coli J5 bacteria. In words: Radial diffusion bactericidal assay, E. coli J5. Type of experiment: cell-based. The following applies: radial diffusion; for pmol added to well to achieve a 30 mm^2 bactericidal zone, E. coli J5: PROBIT analysis, E. coli J5 (rough). How it is done:
BPI proteolytic fragments produced according to Example 1 were screened for bactericidal effects using rough mutant E. coli J5 bacteria in a radial diffusion assay. Specifically, an overnight culture of E. coli J5 was diluted 1:50 into fresh tryptic soy broth and incubated for 3 hours at 37° C. to attain log phase growth of the culture. Bacteria were then pelleted at 3,000 rpm for 5 minutes in a Sorvall RT6000B centrifuge (Sorvall Instruments, Newton, Conn.). 5 mL of 10 mM sodium phosphate buffer (pH 7.4) was added and the preparation was re-pelleted. […] The bacteria were diluted to 4×10^6 CFU/mL in 10 mL of molten underlayer agarose (at approximately 45° C.) and inverted repeatedly to mix in 15 mL polypropylene tubes conventionally used for this purpose.
The entire contents of such tubes were then poured into a level square petri dish and distributed evenly by rocking the dish side-to-side. […] A series of wells were then punched into the hardened agarose using a sterile 3 mm punch attached to a vacuum apparatus. The punch was sterilized with 100% alcohol and allowed to air dry prior to use to avoid contaminating the bacterial culture.
5 or 10 μL of each of the BPI fragments were carefully pipetted into each well. As a negative control, dilution buffer (pH 8.3) was added to a separate well, and rBPI23 at concentrations of 5 μg/mL and 1 μg/mL were also added as positive controls. Each plate was incubated at 37° C. for 3 hours, and then 10 mL of molten overlayer agarose (at approximately 45° C.) was added into the level petri dish, allowed to harden and incubated overnight at 37° C. […] The bacterial zones were measured with a micrometer.

The nature of experiment [3]: 3H-heparin binding assay (affinity and capacity). The settings on record: for Heparin Capacity: heparin bound at saturation; for Kd: read-out: Heparin Affinity. How it is done:
Briefly, each fragment was added to wells of a 96-well microtiter plate having a polyvinylidene difluoride membrane (Immunobilon-P, Millipore, Bedford, Mass.) disposed at the bottom of the wells. […] Positive control wells contained varying amounts of rBPI23. […] DuPont-NEN, Wilmington, Del.) were made in the blocking buffer and incubated in the BPI peptide-containing wells for one hour at 4° C. The unbound heparin was aspirated and the wells were washed three times with blocking buffer, dried and removed for quantitation in a liquid scintillation counter (Model 1217, LKB, Gaithersburg, Md.). Although BSA in the blocking buffer did show a low affinity and capacity to bind heparin, this was considered physiologically irrelevant and the background was routinely subtracted from the test compound signal.

The next experiment has as its system Staphylococcus aureus. The experiment can be described thus: Radial diffusion bactericidal assay, Staphylococcus aureus. The class given is cell-based. The following applies: radial diffusion; PROBIT analysis; S. aureus.

Square brackets hold non-standard residues; d marks the D form. Ends that are not written are not given here. 1Nal = N[C@@H](Cc1cccc2ccccc12)C(=O)O; d1Nal = N[C@H](Cc1cccc2ccccc12)C(=O)O; Pal = not defined here

As for ADADIKISGICWKAQKRFLK [BPI.71], the “pmol added to well to achieve a 30 mm^2 bactericidal zone, E. coli O111:B4” value (shortened to “pmol added to well … E. coli O111:B4”) in experiment [1] is given as “b (no detectable activity up to 5 μg/well)”. Further, the “pmol added to well to achieve a 30 mm^2 bactericidal zone, E. coli J5” value (from here on “pmol added to well … E. coli J5”) in experiment [2] is on record as 2,296.94 pmol. In addition, in experiment [3], the “Heparin Capacity” value is 158.9 ng and the Kd amounted to 75.6 nM. Moreover, the “pmol added to well to achieve a 30 mm^2 bactericidal zone, S. aureus” value (“pmol added to well … S. aureus” below) in the experiment with Staphylococcus aureus is reported as “b (no detectable activity up to 5 μg/well)”.
For the substance CIKISGKWKAQKRFLK [BPI.58], the “pmol added to well … E. coli O111:B4” value in experiment [1] is recorded as “b (no detectable activity up to 5 μg/well)”. Moreover, the “bactericidal activity (in words)” value in experiment [2] (E. coli J5) is on record as “highly bactericidal”. Further, in experiment [2], the “pmol added to well … E. coli J5” value is 1,050.11 pmol. Besides, in experiment [3], the “heparin binding capacity (in words)” value is “extremely high heparin capacity”, the “Heparin Capacity” value is 231.2 ng and the Kd was 194 nM. Further, the “pmol added to well … S. aureus” value in the experiment on Staphylococcus aureus is on record as “b (no detectable activity up to 5 μg/well)”.
On to GWLIQLFHKKIESALRNKMNS [BPI.55], for which the “pmol added to well … E. coli O111:B4” value in experiment [1] was 3,702.60 pmol. For the same substance, in experiment [2], the “pmol added to well … E. coli J5” value came to 299.36 pmol. In addition, in experiment [3], the “Heparin Capacity” value worked out at 166.1 ng and the Kd stood at 368 nM. The “pmol added to well … S. aureus” value with Staphylococcus aureus is 28,204.45 pmol.
Taken in the same sequence, the figures for IAISGKWKAQKRFLA [BPI.60] were “b (no detectable activity up to 5 μg/well)”, 3,782.80 pmol, 120.3 ng, 64.8 nM and “b (no detectable activity up to 5 μg/well)”.
For “KSKVGA2-β-(1-naphthyl)LIQLFHKK (KSKVG[1Nal]LIQLFHKK; not fully specified; printed as KSKVGA2-β-(1-naphthyl)LIQLFHKK) [BPI.130]”, the “pmol added to well … E. coli O111:B4” value in experiment [1] is recorded as 4,377.92 pmol. The “pmol added to well … E. coli J5” value in experiment [2] was 325.75 pmol. Besides, in the experiment with Staphylococcus aureus, the “pmol added to well … S. aureus” value is on record as “b (no detectable activity up to 5 μg/well)”.
With “KSKVGA(pyridyl)LIQLFHKK (KSKVG[Pal]LIQLFHKK; reading uncertain; also: printed as KSKVGA(pyridyl)LIQLFHKK) [BPI.132]”, the “pmol added to well … E. coli O111:B4” value in experiment [1] was “b (no detectable activity up to 5 μg/well)”. Further, the “pmol added to well … E. coli J5” value in experiment [2] is 4,505.79 pmol. Further, the “pmol added to well … S. aureus” value in the experiment with Staphylococcus aureus is “b (no detectable activity up to 5 μg/well)”.
For “KSKVGAD-2-β-(1-naphthyl)LIQLFHKK (KSKVG[d1Nal]LIQLFHKK; not fully specified) [BPI.131]”, the “pmol added to well … E. coli O111:B4” value in experiment [1] is given as “b (no detectable activity up to 5 μg/well)”. Moreover, in experiment [2], the “pmol added to well … E. coli J5” value is recorded as 1,438.21 pmol. Also, in the experiment on Staphylococcus aureus, the “pmol added to well … S. aureus” value is reported as “b (no detectable activity up to 5 μg/well)”.
“KSKVGAD-β-(1-naphthyl)LIQLFHKK (KSKVG[d1Nal]LIQLFHKK) [BPI.129]”: in experiment [1], the “pmol added to well … E. coli O111:B4” value is given as “b (no detectable activity up to 5 μg/well)”. For the same substance, the “pmol added to well … E. coli J5” value in experiment [2] is recorded as 1,685.10 pmol. In addition, in the experiment on Staphylococcus aureus, the “pmol added to well … S. aureus” value is “b (no detectable activity up to 5 μg/well)”.
As for KSKVGFDLIQLPHKK [BPI.128], the “pmol added to well … E. coli O111:B4” value in experiment [1] is given as “b (no detectable activity up to 5 μg/well)”. Besides, the “pmol added to well … E. coli J5” value in experiment [2] is 2,271.14 pmol. Also, the “pmol added to well … S. aureus” value in the experiment with Staphylococcus aureus is recorded as “b (no detectable activity up to 5 μg/well)”.
On to KSKVGFLIQLFHKK [BPI.127], for which the “pmol added to well … E. coli O111:B4” value in experiment [1] was “b (no detectable activity up to 5 μg/well)”. The “pmol added to well … E. coli J5” value in experiment [2] was determined as 406.01 pmol. The “pmol added to well … S. aureus” value in the experiment with Staphylococcus aureus is reported as “b (no detectable activity up to 5 μg/well)”.
For “KSKVGW(p-amino)LIFLFHKK (KSKVG[p‑amino‑tryptophan]LIFLFHKK) [BPI.123]”, the “pmol added to well … E. coli O111:B4” value in experiment [1] was 6,651.23 pmol. The “pmol added to well … E. coli J5” value in experiment [2] came out at 247.20 pmol. In the experiment on Staphylococcus aureus, the “pmol added to well … S. aureus” value is listed as “b (no detectable activity up to 5 μg/well)”.
For the substance KSKVGWDLIQLFHKK [BPI.126], the “pmol added to well … E. coli O111:B4” value in experiment [1] is reported as “b (no detectable activity up to 5 μg/well)”. In addition, the “pmol added to well … E. coli J5” value in experiment [2] was 1,979.97 pmol. In addition, in the experiment on Staphylococcus aureus, the “pmol added to well … S. aureus” value is recorded as “b (no detectable activity up to 5 μg/well)”.
Turning to KSKVGWLIQFFHKK [BPI.113], the “pmol added to well … E. coli O111:B4” value in experiment [1] is reported as 8,671.73 pmol. Besides, the “pmol added to well … E. coli J5” value in experiment [2] is recorded as 270.66 pmol. Also, in the experiment with Staphylococcus aureus, the “pmol added to well … S. aureus” value was “b (no detectable activity up to 5 μg/well)”.
In the same order, the values of “KSKVGWLIQLAβ-(1-naphthyl)HKK (KSKVGWLIQL[1Nal]HKK) [BPI.109]” are 44,875.41 pmol, 308.60 pmol and “b (no detectable activity up to 5 μg/well)”.
In the same order, the values of “KSKVGWLIQLFAβ-(1-naphthyl)KK (KSKVGWLIQLF[1Nal]KK) [BPI.110]” are 7,952.04 pmol, 812.33 pmol and “b (no detectable activity up to 5 μg/well)”.
Taken in the same sequence, the figures for “KSKVGWLIQLFHKAβ-(1-naphthyl) (KSKVGWLIQLFHK[1Nal]) [BPI.111]” were 7,232.08 pmol, 969.00 pmol and 12,467.42 pmol.
With KSKVGWLIQLFHKW [BPI.108], the “pmol added to well … E. coli O111:B4” value in experiment [1] was 306,965.11 pmol. Besides, the “pmol added to well … E. coli J5” value in experiment [2] was determined as 661.05 pmol. Moreover, the “pmol added to well … S. aureus” value with Staphylococcus aureus was 1,413,131,872.57 pmol.
KSKVGWLIQLFWKK [BPI.107]: the “pmol added to well … E. coli O111:B4” value in experiment [1] is 4,665.64 pmol. Besides, the “pmol added to well … E. coli J5” value in experiment [2] is 384.67 pmol. In addition, in the experiment with Staphylococcus aureus, the “pmol added to well … S. aureus” value was “b (no detectable activity up to 5 μg/well)”.
In the same order, the values of KSKVGWLISLFHKK [BPI.104] are 1,376.42 pmol, 385.85 pmol and 27,933.64 pmol.
Taken in the same sequence, the figures for KSKVGWLITLFHKK [BPI.106] were 3,413.80 pmol, 427.12 pmol and “b (no detectable activity up to 5 μg/well)”.
Taken in the same sequence, the figures for KSKVGWLIYLFHKK [BPI.125] were 11,306.79 pmol, 428.85 pmol and “b (no detectable activity up to 5 μg/well)”.
On to “KSKVKAβ-(1-naphthyl)LIQLFHKK (KSKVK[1Nal]LIQLFHKK) [BPI.116]”, for which the “pmol added to well … E. coli O111:B4” value in experiment [1] is listed as 37,539.59 pmol. Further, the “pmol added to well … E. coli J5” value in experiment [2] was determined as 73.82 pmol. The “pmol added to well … S. aureus” value with Staphylococcus aureus is given as “b (no detectable activity up to 5 μg/well)”.
In the same order, the values of KSKVKWLIQLWHKK [BPI.124] are 3,916.32 pmol, 91.23 pmol and “b (no detectable activity up to 5 μg/well)”.
In the same order, the values of KWQLRSKGKIKIFKA [BPI.114] are “b (no detectable activity up to 5 μg/well)”, 1,696.20 pmol and “b (no detectable activity up to 5 μg/well)”.

The values are drawn from patent US20040023884A1, “Biologically active peptides from functional domains of bactericidal/permeability-increasing protein and uses thereof” (priority 1993, published 2004).
